Measurements as given in paper PMC11167047 (Cell Death Discovery, 2024).

Experiments:
Assay in all cases: kinome screen (33PanQinase)
Type in all cases: biochemical
[1] = target: T1, MLK4 (Homo sapiens, UniProt Q5TCX8)
T1 construct: purchased Reaction Biology Europe GmbH (formerly ProQinase)
Experimental: (§1) The Kinome Screening was performed by Reaction Biology Europe GmbH (http://reactionbiology.com; Freiburg i. Br., Germany).

[2] = target: T2, VRK2 (Homo sapiens, UniProt Q86Y07)
T2 construct: purchased Reaction Biology Europe GmbH (formerly ProQinase)
T2 sequence (Q86Y07 whole entry): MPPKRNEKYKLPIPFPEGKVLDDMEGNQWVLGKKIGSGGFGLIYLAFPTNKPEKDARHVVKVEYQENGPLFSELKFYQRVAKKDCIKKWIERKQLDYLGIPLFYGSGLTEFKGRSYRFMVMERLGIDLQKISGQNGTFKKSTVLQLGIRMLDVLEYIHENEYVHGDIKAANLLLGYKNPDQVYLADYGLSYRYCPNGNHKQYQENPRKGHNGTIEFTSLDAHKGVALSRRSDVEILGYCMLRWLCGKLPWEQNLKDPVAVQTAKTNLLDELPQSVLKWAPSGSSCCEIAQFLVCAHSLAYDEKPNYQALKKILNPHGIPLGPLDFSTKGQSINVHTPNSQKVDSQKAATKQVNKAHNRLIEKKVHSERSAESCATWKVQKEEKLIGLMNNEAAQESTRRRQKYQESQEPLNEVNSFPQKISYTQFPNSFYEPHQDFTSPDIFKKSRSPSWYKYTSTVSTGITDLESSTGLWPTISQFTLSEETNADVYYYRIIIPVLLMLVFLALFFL
Experimental: as §1

[3] = target: T3, ABL2 (Homo sapiens, UniProt P42684)
T3 construct: purchased Reaction Biology Europe GmbH (formerly ProQinase)
T3 sequence (P42684 whole entry): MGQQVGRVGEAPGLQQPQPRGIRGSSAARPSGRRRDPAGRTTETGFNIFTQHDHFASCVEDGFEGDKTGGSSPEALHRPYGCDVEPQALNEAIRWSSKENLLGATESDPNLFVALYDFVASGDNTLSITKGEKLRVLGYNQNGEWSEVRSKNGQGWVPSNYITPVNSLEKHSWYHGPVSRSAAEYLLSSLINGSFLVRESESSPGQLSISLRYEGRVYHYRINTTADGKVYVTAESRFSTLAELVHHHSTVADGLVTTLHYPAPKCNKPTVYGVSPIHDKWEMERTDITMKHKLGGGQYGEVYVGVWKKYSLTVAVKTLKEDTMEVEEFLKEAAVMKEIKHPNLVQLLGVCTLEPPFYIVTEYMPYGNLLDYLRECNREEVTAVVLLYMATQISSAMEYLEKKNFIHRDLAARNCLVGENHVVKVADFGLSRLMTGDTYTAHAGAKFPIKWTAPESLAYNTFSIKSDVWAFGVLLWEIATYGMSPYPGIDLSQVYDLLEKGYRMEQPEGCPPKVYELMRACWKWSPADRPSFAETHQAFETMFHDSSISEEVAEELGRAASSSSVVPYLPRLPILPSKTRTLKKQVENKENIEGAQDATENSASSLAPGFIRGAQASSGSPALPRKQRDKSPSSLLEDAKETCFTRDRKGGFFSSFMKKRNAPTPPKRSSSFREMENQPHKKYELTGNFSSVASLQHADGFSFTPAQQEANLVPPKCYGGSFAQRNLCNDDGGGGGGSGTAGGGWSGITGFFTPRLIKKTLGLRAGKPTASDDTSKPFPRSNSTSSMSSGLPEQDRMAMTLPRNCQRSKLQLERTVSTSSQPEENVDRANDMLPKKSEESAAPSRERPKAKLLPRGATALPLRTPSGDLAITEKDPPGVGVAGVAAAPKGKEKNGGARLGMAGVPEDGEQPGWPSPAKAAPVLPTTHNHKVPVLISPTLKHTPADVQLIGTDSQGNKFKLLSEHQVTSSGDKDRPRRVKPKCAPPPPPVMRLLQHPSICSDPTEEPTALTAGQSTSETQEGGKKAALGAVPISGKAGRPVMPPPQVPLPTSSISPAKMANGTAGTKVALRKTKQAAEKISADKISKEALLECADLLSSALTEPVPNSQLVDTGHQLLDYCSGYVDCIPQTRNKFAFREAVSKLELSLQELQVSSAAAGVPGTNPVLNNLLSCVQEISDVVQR
Experimental: as §1

[4] = target: T4, STK25 (Homo sapiens, UniProt O00506)
T4 construct: purchased Reaction Biology Europe GmbH (formerly ProQinase)
T4 sequence (O00506 whole entry): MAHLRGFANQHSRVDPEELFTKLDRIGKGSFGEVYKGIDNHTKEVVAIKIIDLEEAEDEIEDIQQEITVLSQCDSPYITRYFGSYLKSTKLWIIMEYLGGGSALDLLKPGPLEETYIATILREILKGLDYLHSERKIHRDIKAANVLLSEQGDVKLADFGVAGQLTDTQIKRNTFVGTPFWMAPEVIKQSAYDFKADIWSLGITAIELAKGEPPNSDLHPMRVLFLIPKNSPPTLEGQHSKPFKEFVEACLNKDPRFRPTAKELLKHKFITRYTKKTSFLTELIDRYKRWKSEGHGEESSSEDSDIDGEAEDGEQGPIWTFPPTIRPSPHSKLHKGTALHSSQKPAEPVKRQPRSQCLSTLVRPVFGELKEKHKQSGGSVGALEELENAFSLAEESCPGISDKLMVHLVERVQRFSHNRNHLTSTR
Experimental: as §1

[5] = target: T5, ARK5 (Homo sapiens, UniProt O60285)
T5 construct: purchased Reaction Biology Europe GmbH (formerly ProQinase)
T5 sequence (O60285 1-661): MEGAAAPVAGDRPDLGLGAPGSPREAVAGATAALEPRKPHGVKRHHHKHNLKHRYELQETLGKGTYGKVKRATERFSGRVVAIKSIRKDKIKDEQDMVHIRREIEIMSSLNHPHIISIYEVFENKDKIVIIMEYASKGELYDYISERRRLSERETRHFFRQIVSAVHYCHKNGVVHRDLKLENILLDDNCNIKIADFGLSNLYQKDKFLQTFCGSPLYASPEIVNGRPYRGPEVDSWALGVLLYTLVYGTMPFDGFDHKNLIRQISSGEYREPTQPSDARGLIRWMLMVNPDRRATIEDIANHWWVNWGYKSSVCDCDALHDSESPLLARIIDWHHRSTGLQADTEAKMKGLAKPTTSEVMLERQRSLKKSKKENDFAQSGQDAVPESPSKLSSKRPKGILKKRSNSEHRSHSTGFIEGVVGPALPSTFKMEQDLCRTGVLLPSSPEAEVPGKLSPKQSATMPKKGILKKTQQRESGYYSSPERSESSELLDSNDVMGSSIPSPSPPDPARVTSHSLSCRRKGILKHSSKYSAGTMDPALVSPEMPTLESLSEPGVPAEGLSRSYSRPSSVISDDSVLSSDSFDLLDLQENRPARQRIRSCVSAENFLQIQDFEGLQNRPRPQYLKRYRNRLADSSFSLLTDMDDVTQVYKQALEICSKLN
Experimental: as §1

[6] = target: T6, DYRK1A (Homo sapiens, UniProt Q13627)
T6 construct: purchased Reaction Biology Europe GmbH (formerly ProQinase)
Experimental: as §1

[7] = target: T7, MKK7 (Homo sapiens, UniProt O14733)
T7 construct: purchased Reaction Biology Europe GmbH (formerly ProQinase)
T7 sequence (O14733 1-419): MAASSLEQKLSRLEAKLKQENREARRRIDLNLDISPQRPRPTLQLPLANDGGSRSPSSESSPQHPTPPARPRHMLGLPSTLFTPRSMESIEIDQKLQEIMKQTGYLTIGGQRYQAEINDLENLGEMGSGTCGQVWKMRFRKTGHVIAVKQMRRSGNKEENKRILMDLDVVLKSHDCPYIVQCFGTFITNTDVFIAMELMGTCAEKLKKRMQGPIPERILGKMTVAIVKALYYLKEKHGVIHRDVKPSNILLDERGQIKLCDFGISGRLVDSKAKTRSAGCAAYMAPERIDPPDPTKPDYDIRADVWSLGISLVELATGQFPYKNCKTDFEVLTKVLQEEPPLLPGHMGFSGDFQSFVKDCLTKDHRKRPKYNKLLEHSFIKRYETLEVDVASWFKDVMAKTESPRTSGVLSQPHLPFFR
Experimental: as §1

[8] = target: T8, SRC (Homo sapiens, UniProt P12931)
T8 construct: purchased Reaction Biology Europe GmbH (formerly ProQinase)
T8 sequence (P12931 whole entry): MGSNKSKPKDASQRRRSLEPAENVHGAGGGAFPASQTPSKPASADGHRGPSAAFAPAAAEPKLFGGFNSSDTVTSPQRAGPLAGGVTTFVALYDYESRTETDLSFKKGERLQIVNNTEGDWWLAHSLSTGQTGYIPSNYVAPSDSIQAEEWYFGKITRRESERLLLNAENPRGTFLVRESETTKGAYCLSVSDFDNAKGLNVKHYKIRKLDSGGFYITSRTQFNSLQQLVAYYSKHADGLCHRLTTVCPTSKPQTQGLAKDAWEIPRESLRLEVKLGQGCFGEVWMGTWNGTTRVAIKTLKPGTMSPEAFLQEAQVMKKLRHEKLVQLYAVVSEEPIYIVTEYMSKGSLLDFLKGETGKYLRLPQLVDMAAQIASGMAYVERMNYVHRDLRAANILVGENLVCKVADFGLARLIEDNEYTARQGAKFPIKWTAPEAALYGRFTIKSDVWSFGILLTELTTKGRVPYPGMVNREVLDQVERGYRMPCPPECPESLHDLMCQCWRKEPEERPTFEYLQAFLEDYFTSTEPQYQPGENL
Experimental: as §1

[9] = target: T9, MYLK2 (Homo sapiens, UniProt Q9H1R3)
T9 construct: purchased Reaction Biology Europe GmbH (formerly ProQinase)
Experimental: as §1

[10] = target: T10, VEGFR1 (Homo sapiens, UniProt P17948)
T10 construct: purchased Reaction Biology Europe GmbH (formerly ProQinase)
T10 sequence (P17948 27-1338): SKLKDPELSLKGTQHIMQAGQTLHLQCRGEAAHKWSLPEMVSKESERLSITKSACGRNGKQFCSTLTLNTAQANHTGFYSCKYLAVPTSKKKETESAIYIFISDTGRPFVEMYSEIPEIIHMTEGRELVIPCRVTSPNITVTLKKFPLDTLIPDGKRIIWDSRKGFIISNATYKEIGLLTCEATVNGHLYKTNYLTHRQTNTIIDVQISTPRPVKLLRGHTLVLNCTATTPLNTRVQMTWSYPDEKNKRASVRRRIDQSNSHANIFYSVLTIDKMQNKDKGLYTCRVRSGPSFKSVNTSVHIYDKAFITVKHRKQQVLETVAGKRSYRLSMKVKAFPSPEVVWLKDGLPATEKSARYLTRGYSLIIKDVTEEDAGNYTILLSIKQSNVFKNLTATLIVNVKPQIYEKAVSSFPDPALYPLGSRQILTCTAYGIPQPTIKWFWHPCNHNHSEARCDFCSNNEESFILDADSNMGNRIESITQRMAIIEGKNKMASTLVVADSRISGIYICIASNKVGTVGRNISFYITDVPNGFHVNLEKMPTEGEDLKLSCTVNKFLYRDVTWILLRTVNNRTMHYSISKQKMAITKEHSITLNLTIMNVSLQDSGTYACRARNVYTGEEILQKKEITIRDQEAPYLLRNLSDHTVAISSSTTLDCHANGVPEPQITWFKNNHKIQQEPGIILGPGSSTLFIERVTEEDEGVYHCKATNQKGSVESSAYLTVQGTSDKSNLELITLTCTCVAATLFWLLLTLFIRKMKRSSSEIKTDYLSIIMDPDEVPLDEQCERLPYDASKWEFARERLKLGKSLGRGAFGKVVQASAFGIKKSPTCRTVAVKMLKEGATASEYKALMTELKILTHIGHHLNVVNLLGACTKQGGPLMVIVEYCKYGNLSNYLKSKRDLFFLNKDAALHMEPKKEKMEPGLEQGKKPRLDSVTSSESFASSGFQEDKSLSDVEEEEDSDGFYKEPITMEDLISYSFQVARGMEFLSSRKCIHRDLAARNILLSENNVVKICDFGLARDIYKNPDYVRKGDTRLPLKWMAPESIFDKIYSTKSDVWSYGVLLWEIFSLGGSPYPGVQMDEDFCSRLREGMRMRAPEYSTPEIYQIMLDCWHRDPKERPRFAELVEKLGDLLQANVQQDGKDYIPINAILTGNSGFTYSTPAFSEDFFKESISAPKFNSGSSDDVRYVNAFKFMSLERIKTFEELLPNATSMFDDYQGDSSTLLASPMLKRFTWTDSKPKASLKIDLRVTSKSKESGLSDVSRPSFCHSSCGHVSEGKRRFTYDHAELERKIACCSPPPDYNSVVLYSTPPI
Experimental: as §1

[11] = target: T11, STK39 (Homo sapiens, UniProt Q9UEW8)
T11 construct: purchased Reaction Biology Europe GmbH (formerly ProQinase)
Experimental: as §1

[12] = target: T12, EPHA6 (Homo sapiens, UniProt Q9UF33)
T12 construct: purchased Reaction Biology Europe GmbH (formerly ProQinase)
T12 sequence (Q9UF33 23-1036): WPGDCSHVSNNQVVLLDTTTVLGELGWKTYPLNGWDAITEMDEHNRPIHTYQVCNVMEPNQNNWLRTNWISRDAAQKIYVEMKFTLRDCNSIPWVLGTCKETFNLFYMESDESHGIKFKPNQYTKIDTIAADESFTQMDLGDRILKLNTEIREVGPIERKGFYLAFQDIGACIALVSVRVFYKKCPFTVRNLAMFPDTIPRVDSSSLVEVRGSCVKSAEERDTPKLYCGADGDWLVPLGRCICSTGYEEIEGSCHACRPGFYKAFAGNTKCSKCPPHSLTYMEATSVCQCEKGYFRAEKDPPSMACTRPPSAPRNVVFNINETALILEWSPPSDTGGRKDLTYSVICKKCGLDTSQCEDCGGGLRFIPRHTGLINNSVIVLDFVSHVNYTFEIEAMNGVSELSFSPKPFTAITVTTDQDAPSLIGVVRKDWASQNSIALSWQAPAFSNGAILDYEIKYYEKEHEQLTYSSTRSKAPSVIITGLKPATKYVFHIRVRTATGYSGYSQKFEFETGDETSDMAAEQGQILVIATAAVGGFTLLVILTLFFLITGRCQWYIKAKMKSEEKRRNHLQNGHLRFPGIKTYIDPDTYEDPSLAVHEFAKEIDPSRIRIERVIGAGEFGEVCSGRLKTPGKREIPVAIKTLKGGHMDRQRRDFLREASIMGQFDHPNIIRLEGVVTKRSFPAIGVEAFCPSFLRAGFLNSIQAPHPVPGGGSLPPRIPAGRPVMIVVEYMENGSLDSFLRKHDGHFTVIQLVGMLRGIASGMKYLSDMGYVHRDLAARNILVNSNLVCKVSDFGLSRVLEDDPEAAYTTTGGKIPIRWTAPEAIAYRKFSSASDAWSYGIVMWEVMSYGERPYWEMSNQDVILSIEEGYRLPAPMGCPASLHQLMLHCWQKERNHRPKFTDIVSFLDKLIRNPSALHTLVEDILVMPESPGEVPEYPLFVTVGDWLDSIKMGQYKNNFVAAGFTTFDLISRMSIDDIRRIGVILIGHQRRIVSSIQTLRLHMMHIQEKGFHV
Experimental: as §1

T1 sequence (Q5TCX8 whole entry): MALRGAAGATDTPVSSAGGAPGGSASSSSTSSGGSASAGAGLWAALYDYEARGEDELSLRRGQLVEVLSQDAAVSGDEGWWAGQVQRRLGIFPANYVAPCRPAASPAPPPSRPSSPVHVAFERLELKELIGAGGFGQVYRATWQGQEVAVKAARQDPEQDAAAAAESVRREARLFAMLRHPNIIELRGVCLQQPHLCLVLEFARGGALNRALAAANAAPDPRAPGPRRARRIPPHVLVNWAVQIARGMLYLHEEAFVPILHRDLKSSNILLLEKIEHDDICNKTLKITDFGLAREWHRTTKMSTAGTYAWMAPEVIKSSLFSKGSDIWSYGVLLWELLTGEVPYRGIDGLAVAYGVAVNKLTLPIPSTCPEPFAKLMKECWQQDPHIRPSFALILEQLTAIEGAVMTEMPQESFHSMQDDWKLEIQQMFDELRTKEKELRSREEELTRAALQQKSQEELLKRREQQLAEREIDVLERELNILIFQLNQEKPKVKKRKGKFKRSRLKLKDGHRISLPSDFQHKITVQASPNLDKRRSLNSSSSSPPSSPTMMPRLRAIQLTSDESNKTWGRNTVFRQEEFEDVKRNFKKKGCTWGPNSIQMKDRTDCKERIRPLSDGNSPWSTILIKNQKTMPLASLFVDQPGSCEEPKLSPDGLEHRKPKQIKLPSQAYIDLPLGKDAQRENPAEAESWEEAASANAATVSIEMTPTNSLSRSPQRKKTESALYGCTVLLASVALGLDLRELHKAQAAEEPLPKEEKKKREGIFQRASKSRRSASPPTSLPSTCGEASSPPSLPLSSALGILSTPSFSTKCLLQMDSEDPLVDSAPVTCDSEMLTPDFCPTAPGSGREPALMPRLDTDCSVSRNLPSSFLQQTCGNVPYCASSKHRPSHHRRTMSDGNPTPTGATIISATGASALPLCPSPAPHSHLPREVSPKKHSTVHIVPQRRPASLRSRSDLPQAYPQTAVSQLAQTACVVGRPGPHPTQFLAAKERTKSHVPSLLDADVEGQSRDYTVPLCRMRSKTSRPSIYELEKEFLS

## COc1ccnc2[nH]cc(-c3cc(N)nc(N)c3)c12 [meriolin 16]
[1]; 0.03 µM
  residual kinase activity: 105 % of control
[1]; 0.3 µM
  residual kinase activity: 75 % of control
[2]; 0.03 µM
  residual kinase activity: 103 % of control
[2]; 0.3 µM
  residual kinase activity: 92 % of control
[3]; 0.03 µM
  residual kinase activity: 95 % of control
[3]; 0.3 µM
  residual kinase activity: 91 % of control
[4]; 0.03 µM
  residual kinase activity: 99 % of control
[4]; 0.3 µM
  residual kinase activity: 81 % of control
[5]; 0.03 µM
  residual kinase activity: 92 % of control
[5]; 0.3 µM
  residual kinase activity: 88 % of control
[6]; 0.03 µM
  residual kinase activity: 11 % of control
[6]; 0.3 µM
  residual kinase activity: 2 % of control
[7]; 0.03 µM
  residual kinase activity: 96 % of control
[7]; 0.3 µM
  residual kinase activity: 88 % of control
[8]; 0.03 µM
  residual kinase activity: 95 % of control
[8]; 0.3 µM
  residual kinase activity: 86 % of control
[9]; 0.03 µM
  residual kinase activity: 65 % of control
[9]; 0.3 µM
  residual kinase activity: 32 % of control
[10]; 0.03 µM
  residual kinase activity: 110 % of control
[10]; 0.3 µM
  residual kinase activity: 89 % of control
[11]; 0.03 µM
  residual kinase activity: 77 % of control
[11]; 0.3 µM
  residual kinase activity: 66 % of control
[12]; 0.03 µM
  residual kinase activity: 98 % of control
[12]; 0.3 µM
  residual kinase activity: 105 % of control

## c1ccc(CNc2cc(-c3c[nH]c4ncccc34)ccn2)cc1 [meriolin 36]
[1]; 0.3 µM
  residual kinase activity: 73 % of control
[1]; 3 µM
  residual kinase activity: 40 % of control
[2]; 0.3 µM
  residual kinase activity: 93 % of control
[2]; 3 µM
  residual kinase activity: 45 % of control
[3]; 0.3 µM
  residual kinase activity: 56 % of control
[3]; 3 µM
  residual kinase activity: 18 % of control
[4]; 0.3 µM
  residual kinase activity: 33 % of control
[4]; 3 µM
  residual kinase activity: 6 % of control
[5]; 0.3 µM
  residual kinase activity: 90 % of control
[5]; 3 µM
  residual kinase activity: 40 % of control
[6]; 0.3 µM
  residual kinase activity: 7 % of control
[6]; 3 µM
  residual kinase activity: 0 % of control
[7]; 0.3 µM
  residual kinase activity: 81 % of control
[7]; 3 µM
  residual kinase activity: 48 % of control
[8]; 0.3 µM
  residual kinase activity: 88 % of control
[8]; 3 µM
  residual kinase activity: 24 % of control
[9]; 0.3 µM
  residual kinase activity: 61 % of control
[9]; 3 µM
  residual kinase activity: 26 % of control
[10]; 0.3 µM
  residual kinase activity: 83 % of control
[10]; 3 µM
  residual kinase activity: 43 % of control
[11]; 0.3 µM
  residual kinase activity: 40 % of control
[11]; 3 µM
  residual kinase activity: 19 % of control
[12]; 0.3 µM
  residual kinase activity: 101 % of control
[12]; 3 µM
  residual kinase activity: 65 % of control
